Laboratory results as given in the supplement of paper PMC10307832.

Legend:
Assay in all cases: relative viability (nuclei count vs DMSO), 5 days (fraction); higher = more cells survive
AZ505 + Palbociclib = compound: C1CCC(CC1)N(CCNCCC2=C3C(=C(C=C2)O)NC(=O)CO3)C(=O)CCNCCC4=CC(=C(C=C4)Cl)Cl [AZ505] + CC(=O)c1c(C)c2cnc(Nc3ccc(N4CCNCC4)cn3)nc2n(C2CCCC2)c1=O [Palbociclib] (partner 0.5 µM)
Procedure, shortened: (§1)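 Lung cancer cell lines were seeded in 1536-well plates and dosed by pin tool the next day, with either a single drug or a fixed anchor-drug dose combined with five library-drug doses (not always all listed) spaced in √10 steps. Five days later, one step fixed the cells and stained their nuclei (final 0.05% Triton X-100, 1% formaldehyde, 1 ug/ml Hoechst), and nuclei were counted on 4× images. Relative viability is the nuclei count in treated wells divided by the count in vehicle wells, and each value is the median of duplicate plates.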

Dactolisib + Palbociclib = compound: Cn1c(=O)n(-c2ccc(C(C)(C)C#N)cc2)c2c3cc(-c4cnc5ccccc5c4)ccc3ncc21 [Dactolisib] + CC(=O)c1c(C)c2cnc(Nc3ccc(N4CCNCC4)cn3)nc2n(C2CCCC2)c1=O [Palbociclib] (partner 0.5 µM)
Procedure, shortened: as §1

AZ505 + AZD7762 = compound: C1CCC(CC1)N(CCNCCC2=C3C(=C(C=C2)O)NC(=O)CO3)C(=O)CCNCCC4=CC(=C(C=C4)Cl)Cl [AZ505] + NC(=O)Nc1cc(-c2cccc(F)c2)sc1C(=O)N[C@H]1CCCNC1 [AZD7762] (partner 0.2 µM)
Procedure, shortened: as §1

AZ505 + Luminespib = compound: C1CCC(CC1)N(CCNCCC2=C3C(=C(C=C2)O)NC(=O)CO3)C(=O)CCNCCC4=CC(=C(C=C4)Cl)Cl [AZ505] + CCNC(=O)c1noc(-c2cc(C(C)C)c(O)cc2O)c1-c1ccc(CN2CCOCC2)cc1 [Luminespib] (partner 0.01 µM)
Procedure, shortened: as §1

Cell Line	relative viability (AZ505 + Palbociclib; first compound 0.08 µM)	relative viability (AZ505 + Palbociclib; first compound 0.253 µM)	relative viability (AZ505 + Palbociclib; first compound 0.8 µM)	relative viability (AZ505 + Palbociclib; first compound 8 µM)	relative viability (Dactolisib + Palbociclib; first compound 0.002 µM)	relative viability (Dactolisib + Palbociclib; first compound 0.006325 µM)	relative viability (Dactolisib + Palbociclib; first compound 0.02 µM)	relative viability (Dactolisib + Palbociclib; first compound 0.06325 µM)	relative viability (Dactolisib + Palbociclib; first compound 0.2 µM)	relative viability (AZ505 + AZD7762; first compound 0.08 µM)	relative viability (AZ505 + AZD7762; first compound 0.253 µM)	relative viability (AZ505 + AZD7762; first compound 0.8 µM)	relative viability (AZ505 + AZD7762; first compound 2.53 µM)	relative viability (AZ505 + AZD7762; first compound 8 µM)	relative viability (AZ505 + Luminespib; first compound 0.08 µM)	relative viability (AZ505 + Luminespib; first compound 0.253 µM)	relative viability (AZ505 + Luminespib; first compound 0.8 µM)	relative viability (AZ505 + Luminespib; first compound 2.53 µM)	relative viability (AZ505 + Luminespib; first compound 8 µM)	relative viability (AZ505 + Palbociclib; first compound 2.53 µM)
LCLC-97TM1	0.213	0.252	0.219	0.232	0.217	0.252	0.194	0.161	0.0966	0.427	0.111	0.301	0.317	0.354	0.774	0.853	0.836	0.749	0.871	–
LCLC-103H	0.485	0.455	0.455	0.452	0.483	0.494	0.45	0.414	0.373	0.711	0.719	0.665	0.647	0.718	0.914	0.961	0.877	0.877	0.997	0.45
PC-3 [JPC-3]	0.527	–	0.521	0.568	0.596	0.544	0.59	0.511	0.418	0.784	–	0.843	0.873	1.06	0.65	0.697	0.661	0.635	0.739	0.566
BEN	0.458	0.457	0.442	0.498	0.479	0.477	0.473	0.458	0.426	0.594	0.433	0.621	0.758	0.759	0.367	0.564	0.352	0.336	0.449	0.48
NCI-H1666	0.625	0.648	0.621	0.601	0.628	0.624	0.673	0.622	0.579	0.791	0.853	0.844	0.852	0.946	0.974	0.952	0.931	0.987	0.997	0.72
LC-2-ad	0.458	0.479	0.45	0.511	0.434	0.48	0.51	0.454	0.426	0.801	0.821	0.867	0.847	0.832	0.927	0.881	1.06	0.868	1.16	0.499
ChaGo-K-1	0.823	0.999	1	0.91	0.93	0.958	0.88	0.84	0.85	0.73	0.836	0.766	0.888	0.886	0.513	0.603	0.556	0.673	0.474	0.92
NCI-H1975	0.531	0.473	0.505	0.564	0.551	0.561	0.536	0.182	0.129	0.674	0.614	0.765	0.703	0.81	0.198	0.197	0.197	0.162	0.2	0.621
